From PubChem BioAssay AID1418 (Emory University Molecular Libraries Screening Center, 2008)
Active and inactive are the calls of the source. The rule behind the calls is not given here.

These compounds were tested against Induced myeloid leukemia cell differentiation protein Mcl-1 (Homo sapiens) (UniProt Q07820) (assay: blockers of Bid binding to Mcl-1 – biochemical, TR-FRET, dose response (AID 1418)). Settings: Mcl-1/Bid peptide binding, TR-FRET (europium/Dy647), 2 hr.
Chain of Induced myeloid leukemia cell differentiation protein Mcl-1 (Homo sapiens) (Q07820 whole entry, looked up): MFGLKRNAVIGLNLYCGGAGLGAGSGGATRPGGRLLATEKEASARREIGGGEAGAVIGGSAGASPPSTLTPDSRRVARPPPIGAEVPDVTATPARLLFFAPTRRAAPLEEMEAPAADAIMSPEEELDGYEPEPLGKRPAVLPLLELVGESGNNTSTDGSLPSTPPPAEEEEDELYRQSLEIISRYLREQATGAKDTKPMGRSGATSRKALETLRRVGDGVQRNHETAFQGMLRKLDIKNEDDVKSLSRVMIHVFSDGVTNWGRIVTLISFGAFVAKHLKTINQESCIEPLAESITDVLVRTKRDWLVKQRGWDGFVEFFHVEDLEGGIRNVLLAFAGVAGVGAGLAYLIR

Row | Compound | IC50
1 | O=C(Nc1ccc(-c2nc3cc(Cl)ccc3c(=O)o2)cc1)c1ccco1 | > 54 µM (inactive)
2 | COc1ccc(N2C(=O)CC(S/C(N)=N/N=C/c3ccnc4ccccc34)C2=O)cc1 (stereo not given) | > 54 µM (inactive)
3 | CCn1c(C)cc(/C=C2\NC(=O)N(Cc3ccc(Cl)cc3)C2=O)c1C | 9.26 µM
4 | CC(C)NC(=O)C1CCCN(S(=O)(=O)c2ccc(-n3cnnn3)cc2)C1 (stereo not given) | > 54 µM (inactive)
5 | CCc1cc(=O)oc2cc3occ(-c4ccc(OC)c(F)c4)c3cc12 | > 54 µM (inactive)
6 | Clc1ccc(SCCn2ccnc2)cc1 | inactive
7 | N#Cc1cc(-c2ccccc2)nc(Oc2ccccc2)n1 | > 54 µM (inactive)
8 | COc1cccc(Oc2c(C)oc3c(CN4CCCC4)c(O)ccc3c2=O)c1 | > 54 µM (inactive)
9 | CCCC(=O)Nc1nnc(-c2cccc(OCC)c2)s1 | > 54 µM (inactive)
10 | O=S(=O)(Nc1cccc(-c2cn3ccsc3n2)c1)c1ccc(F)cc1 | > 54 µM (inactive)
11 | CCCCOc1ccc(C(=O)NCCC(=O)NCCCC(=O)OCC)cc1 | > 54 µM (inactive)
12 | Cc1cc(C)n(Cc2cccc(F)c2)c(=O)c1C#N | > 54 µM (inactive)
13 | O=C(O)COc1ccc(/C=N/NC(=O)c2ccc(-c3csc(Nc4ccc(Cl)cc4)n3)cc2)cc1 | 1.43 µM
14 | Fc1ccc(NC(=S)N/N=C/c2cccc(Br)c2)c(F)c1 | > 54 µM (inactive)
15 | O=C1NC(=S)N/C1=C/c1ccc(-c2c(Br)cc([N+](=O)[O-])cc2Br)o1 | 1.59 µM
16 | CCOC(=O)C1CCN(CC(=O)Nc2c(C(=O)OC)[nH]c3cccc(Cl)c23)CC1 | > 54 µM (inactive)
17 | COc1cc(-c2nc(-c3ccc(NC(=O)c4ccc(Br)o4)cc3)no2)cc(OC)c1OC | 1.81 µM

Row | Compound | IC50
18 | O=[N+]([O-])c1cc(Cl)cc(/C=N/NC(=S)Nc2ccc(S(=O)(=O)N3CCOCC3)cc2)c1O | > 54 µM (inactive)
19 | COc1cc(/C=C2\SC(=O)N(Cc3ccc(Cl)cc3)C2=O)cc([N+](=O)[O-])c1O | 16.9 µM
20 | COc1ccc(-c2nc(-n3c(C)c(C(C)=O)c(C(C)=O)c3C)sc2C)cc1 | > 54 µM (inactive)
21 | O=C(COC(=O)c1cc[n+]([O-])cc1)Nc1ccccc1Cl | > 54 µM (inactive)
22 | COc1ccc(C(=O)N(Cc2ccccc2)Cc2cc3cc4c(cc3[nH]c2=O)OCCO4)cc1 | > 54 µM (inactive)
23 | CC(C)CN(CC(C)C)C(=S)NC1CCCCC1 | > 54 µM (inactive)
24 | O=C(/C=C/N1CCOCC1)c1coc2ccccc12 | > 54 µM (inactive)
25 | CC(=O)Cc1cc(O)c2ccccc2c1OC(=O)c1ccc(Br)cc1 | > 54 µM (inactive)
26 | O=C(O)c1cc(N2N=C(C(F)(F)F)/C(=C/C=C/c3ccco3)C2=O)ccc1Cl | 1.4 µM
27 | Cc1cccc(OCc2nc(C#N)c(NCc3ccc4c(c3)OCO4)o2)c1 | > 54 µM (inactive)
28 | COc1cccc2cc(C(=O)Oc3ccc(NC(C)=O)cc3)c(=O)oc12 | > 54 µM (inactive)
29 | COc1ccc2nc(NC(=O)c3cccc(-c4cc5ccccc5oc4=O)c3)sc2c1 | 0.89 µM
30 | CCN(CC)c1ccc2cc(-c3nc4ccccc4[nH]3)c(=O)oc2c1 | 1.62 µM
31 | O=C(O)CC(NC(=O)COc1ccc(Cl)cc1Cl)C(=O)O (stereo not given) | > 54 µM (inactive)
32 | Cc1noc2ncnc(SCc3ccc(C(F)(F)F)cc3)c12 | > 54 µM (inactive)
33 | COc1cccc2c1nc(C)c1cc(C)oc12 | > 54 µM (inactive)

Results, then the compound that gave them:

Row | IC50 | Compound
34 | > 54 µM (inactive) | Cc1cccc(N(CC(=O)NC2CCCC2)C(=O)c2cc3cc4cccc(C)c4nc3s2)c1C
35 | 1.53 µM | CSc1nc(SCC(=O)O)c2sc3nc(-c4ccccc4)c4c(c3c2n1)CCC4
36 | 3.22 µM | COc1ccc(-n2cccc2/C=C2\C(=N)N3N=C(c4ccco4)SC3=NC2=O)cc1
37 | > 54 µM (inactive) | Cc1cc(/C=N/NC(=O)c2cccs2)c(C)n1-c1ccccc1
38 | 0.84 µM | COc1ccc(CN2C(=O)c3cccnc3C2Nc2cc(Cl)c(OC)cc2OC)cc1 (stereo not given)
39 | 2.58 µM | O=C1C(=Cc2cccn2-c2ccccc2)C(=O)c2ccccc21
40 | 14.1 µM | Cc1c(C(=O)N/N=C/c2ccc(-c3ccccc3[N+](=O)[O-])o2)sc(N)c1C#N
41 | > 54 µM (inactive) | CN(CCOC(=O)C1c2ccccc2Oc2ccccc21)C(C)(C)C
42 | > 54 µM (inactive) | Cc1ccc(-c2noc(-c3ccccc3C(=O)N3CCN(C)CC3)n2)cc1
43 | 2.35 µM | CC(C)C(C(=O)O)N1C(=O)/C(=C/C=C/c2ccco2)SC1=S (stereo not given)
44 | 0.58 µM | O=C(O)C1Nc2c(O)cc(Cl)c([N+](=O)[O-])c2C2C=CCC12 (stereo not given)
45 | 3.46 µM | Cc1ccc(-n2cccc2/C=C2\C(=N)N3N=C(c4ccco4)SC3=NC2=O)cc1
46 | > 54 µM (inactive) | Cc1cccc(NC(=O)C2CCN(c3nc(C)cc(C)n3)CC2)c1
47 | 1.38 µM | O=C(Nc1ccc(Nc2ccncc2)cc1)c1ccc(Nc2ccnc3ccc([N+](=O)[O-])cc23)cc1[N+](=O)[O-]
48 | > 54 µM (inactive) | COc1ccccc1C1CC(c2ccccc2)Nc2ncnn21 (stereo not given)
49 | > 54 µM (inactive) | CCOc1ccc(N2C(=O)c3cccnc3C2Nc2ccc(F)cc2)cc1 (stereo not given)
50 | 6.64 µM | CCCCCCCCCCCCCCCC[n+]1cccc2ccccc21
